Assay results published in US9687467B2, “Diagnosis and treatment of taxane-resistant cancers” (Children's Medical Center Corporation, priority 2011, dated 2017).

System: MES-SA cells
Assay: MTT cell viability assay, paclitaxel response
Format: cell-based, human
Conditions: 100 nM paclitaxel for 72 h
Protocol: The paclitaxel-resistant cell lines MES-SA^DX5 and A549^TR were transfected with a scrambled non-targeting miRNA (control) and an miR-135a mimic (mimic), respectively. Cells were subsequently treated with 100 nM paclitaxel and cell viability was assessed using the MTT assay (FIGS. 2A, 2B). The percentage of apoptotic cells was assessed by Annexin V-staining and FACS analysis (FIGS. 2C, 2D). Values are presented as percent cell survival in paclitaxel-treated cells relative to untreated cells. *P<0.05, **P<0.001 as determined by Wilcoxon's rank sum test.
FIGS. 4A-4E are a series of micrographs and line graphs showing that miR-135a-mediated APC suppression contributes to paclitaxel resistance. MES-SA and A549 cells were mock-transfected (mock), transfected with a scrambled siRNA (siControl) or with siRNA directed against APC (siAPC). […] Transfected A549 (FIG. 4B) and MES-SA (FIG. 4C) cells were treated with paclitaxel and viability was assessed using the MTT assay. […] (FIG. 4E) Both A549-shCON and -shAPC cells were treated with paclitaxel and cell viability was measured using the MTT assay. […]
Cell growth inhibition was determined by a 3-(4,5-dimethylthiazol-2-yl)-2,5-diphenyltetrazolium (MTT) bromide assay. […] Absorbance was determined using a 96-well SpectraMax plate reader (Molecular Devices, Sunnyvale, Calif.) at 560 nm and 650 nm (background). […]

CC(=O)O[C@H]1C(=O)[C@@]2(C)[C@H]([C@H](OC(=O)c3ccccc3)[C@]3(O)C[C@H](OC(=O)[C@H](O)[C@@H](NC(=O)c4ccccc4)c4ccccc4)C(C)=C1C3(C)C)[C@]1(OC(C)=O)CO[C@@H]1C[C@@H]2O [paclitaxel]
cell survival: 21.8%
